Legend:
Assay type in all cases: cell-based
[1] = tested on: MCF-7, HCC1954, and HCC1937 cells; experiment: Cell survival assay, YW-1842 with DNA damaging agents, IR or H2O2
Description: (§1) FIGS. 6A-6E show TRDMT1 Inhibitors specifically sensitizes cells to DNA damage agents. (FIG. 6A) SCE WT cells were transfected with TA-KR and were cultured with 2.5 μM/L compound YW-1842 or not for 6 hours, m^5C (n=3, 50 cells per replicated, Mean±SD) was stained and quantified. DR-GFP (FIG. 6B) or EJ5-GFP (FIG. 6C) cells were pre-treated with 2.5 μM/L compound YW-1842 for 6 h or TRDMT1 siRNA for 48 h, or DMSO. Then the cells were transfected with NLS-I-SceI plasmid to induce DSB. The efficiency of HR (FIG. 6B) or NHEJ (FIG. 6C) was analyzed by flow-cytometry (n=3, Mean f SD). (FIG. 6D) After seeding, MCF-7, HCC1954, and HCC1937 cells were pre-treated with or without 2.5 μM/L compound YW-1842 for 6 h, then cultured with chemotherapy drugs (1 μM/L Cisplatin; 1 μM/L ATRi AZ20; […]; 1 μM/L PARPi Olaparib for 10 days. The survival rate of these cells was analyzed (n=3, Mean±SD). (FIG. 6E) TRDMT1 KO U2OS cells were transfected with GFP-TRDMT1^WT or GFP-TRDMT1^G155V with or without 2.5 μM/L compound YW-1842, the survival rate of these cells after IR or Cisplatin was shown (n=3, Mean±SD).
MCF-7, HCC1954, and HCC1937 cells were pre-treated with or without TRDMT1 inhibitor YW-1842 (2.5 μM) for 6 hrs, then the cells were exposed to IR or H2O2, and cultured for 7-14 days. The survival rate of these cells was analyzed (n=3, Mean±SD)
Approximately 500 U2OS/TRDMT1 KO U2OS/MCF-7/HCC1954/HCC1937 cells and TRDMT1 siRNA or GFP-TRDMT1 WT/G155V/K251R transfected cells were seeded in 6 cm dish with or without TRDMT1 inhibitors (2.5 μM/L). 6 hrs after seeding, cells were exposed to cisplatin (1134357, Sigma, 1 μM/L), ATMi (KU55933, C9867, Sigma, 1 μM/L), ATRi (AZ20, 57050, Selleck, 1 μM/L) or PARPi (Olaparib, AZD2461, Sigma, 1 μM/L) at indicated concentration or ionizing radiation (IR). After 7-14 days, colonies were fixed and stained with 0.3% crystal violet in methanol, and the number of colonies was counted manually.

[2] = molecular target: T1, TRDMT1 (Homo sapiens, UniProt O14717); experiment: m5C staining at TA-KR DNA damage sites
T1 construct: SCE WT cells were transfected with TA-KR and were cultured with 2.5 μM/L compound YW-1842 or not for 6 hours; endogenous in cells
T1 sequence (O14717 1-391): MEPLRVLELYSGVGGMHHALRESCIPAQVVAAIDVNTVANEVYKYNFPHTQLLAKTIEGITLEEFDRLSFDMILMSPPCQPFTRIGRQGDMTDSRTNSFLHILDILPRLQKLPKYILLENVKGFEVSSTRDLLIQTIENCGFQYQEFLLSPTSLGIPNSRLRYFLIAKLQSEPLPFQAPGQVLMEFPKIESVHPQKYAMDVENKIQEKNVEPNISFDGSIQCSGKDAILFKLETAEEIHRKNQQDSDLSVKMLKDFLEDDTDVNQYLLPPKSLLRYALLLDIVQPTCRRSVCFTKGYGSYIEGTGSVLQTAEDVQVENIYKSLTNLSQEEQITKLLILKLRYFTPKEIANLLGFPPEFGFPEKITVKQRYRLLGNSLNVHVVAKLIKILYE
Description: as §1
The Olympus FV1000 confocal microscopy system (Cat. FIOPRDMYR-1, Olympus) and FV1000 software were used for the acquisition of images. Cells were cultured in 35 mm glass-bottom dishes (MatTek, P35GC-1.5-14-C) before observation. […] The intensity was measured by ImageJ 1.52i software. […]

[3] = tested on: HST578, MBAMD231, HCC1937, HCC1954 cancer cells; experiment: Cell survival assay, TRDMT1i alone (Example 19)
Description: FIGS. 14A-14C show TRDMT1i alone reduce cancer cell survival in a dose-dependent manner. (FIG. 14A) Survival rate of HR proficient (HR+) HST578 cancer cells with and without siBRCA1 and/or TRDMT1i YW-1842 at indicated dose. The survival rate of these cells was analyzed (n=3, Mean±SD). (FIG. 14B) Survival rate of MBAMD231 (HR+) and HCC1937 (HRD) cells. The survival rate of these cells was analyzed (n=3, Mean±SD). (FIG. 14C) Cell survival rate in different cancer cell lines via colony-forming assay with the treatment of Imatinib at indicated dose (n=3, mean+/−S.D.). Cell lines are listed in order with the expression level from SYCP2high to SYCP2low.
Cells were seeded in each 6-cm dish and cultured as described above. They were treated with drugs with indicated dose in medium after seeding. After 7-10 days, colonies were fixed and stained with 0.3% crystal violet in methanol, and the number of colonies was counted manually.

Structure (SMILES): COc1cc2nc(-n3cc(-c4ccc(S(C)(=O)=O)cc4)cn3)nc(-c3ccsc3)c2cc1OC [YW-1842, 6,7-dimethoxy-2-(4-(4-(methylsulfonyl)phenyl)-1H-pyrazol-1-yl)-4-(thiophen-3-yl)quinazoline]
- survival rate in combination with H2O2 ([1]; 2.5 μM, combined with H2O2, versus DMSO): decreased the survival rate of all the three cell lines
- sensitization to DNA damaging agents (survival rate) ([1]; 2.5 μM/L with Cisplatin, ATRi AZ20, ATMi KU55933 or PARPi Olaparib, versus single treatment): sensitizes the cells to above DNA damaging agents
- cell killing by compound alone ([1]; 2.5 μM/L, alone): does not kill cells alone
- synergy with PARPi Olaparib ([1]; YW-1842 2.5 μM, Olaparib at 1, HCC 1954 cell lines): strong synergy
- m^5C inhibitory activity ([2]; 2.5 μM/L, 6 hours, TA-KR sites (FIG. 6A)): almost equivalent to TRDMT1 depletion
- inhibiting TRDMT1 recruitment, m^5C formation and HR efficiency at DNA damage sites ([2]; summary statement): performed well
- sensitivity of HR deficient cells to TRDMT1i alone ([3]; HCC1937 (HRD) versus MBAMD231 (HR+)): more sensitive
- killing of HCC1954 ([3]; HCC1954, HRD, high SYCP2): efficiently killed HCC1954
- cancer cell survival, TRDMT1i alone ([3]; HR-proficient HST578 cells): kills HR-proficient cancer cells HST578 in a dose-dependent manner
- TRDMT1i sensitivity on BRCA1 knockdown ([3]; HST578 cells with siBRCA1): significantly increased TRDMT1i sensitivity
- killing across cancer cell lines by SYCP2 level and HR status ([3]; cell lines ordered SYCP2high to SYCP2low (FIG. 14C)): killed SYCP2-high cancer cell lines and HR deficient cells the most efficiently

Source: US12667568B2, “Compositions and methods for the treatment and diagnosis of cancer” (The General Hospital Corporation, priority 2020, dated 2026)
